What is called MIC is the lowest concentration found to suppress growth.

In brackets after ≈: the same amount, converted by molar mass.

Data on ten compounds can be found in US9241917B2, “Facially amphiphilic polymers and oligomers and uses thereof” (priority 2003, dated 2016).

One series has as its system Heparin. The series is described as follows: Clotting time of activated plasma in the presence of heparin. Type of series: biochemical. Also on record: unit not given here. The note with it: heparin 1 unit, 0.2 ug/ml.
Series [1] relates to low molecular weight heparin (LMWH, Innohep). As to the kind of experiment: Clotting time of activated plasma in the presence of LMWH. Type of series: biochemical. Conditions: for Clotting time of activated plasma: LMWH 4.6 ug/ml.
In series [2] the test system is Candida albicans ATCC 10231. As to the kind of experiment: Antifungal growth assay (MIC100), Candida albicans. Type of series: cell-based. The note with it: ATCC10231, 20 h. The protocol:
(§1) Several different genera of fungi were tested for their sensitivity to a set of salicylamide and arylamide oligomers. Both non-filamentous (yeast) and filamentous fungi were tested and specific fungi that are associated with various types of human infections were chosen for the screen (Table 4). […] All growth assays were done in a total of 1 ml volumes and growth was assessed by turbidity measurements. Other assay conditions are described in Table 6.

Series [3] deals with Aspergillus fumigatus ATCC 1028. As to the kind of experiment: Antifungal growth assay (MIC100), Aspergillus fumigatus. It is filed as cell-based. The note with it: ATCC1028, 48 h, complete inhibition of growth, 2 days, 28° C. The protocol:
as §1

For series [4], the system named is Cryptococcus neoformans ATCC 24067. The series is described as follows: Antifungal growth assay (MIC100), Cryptococcus neoformans. It is filed as cell-based. Conditions: ATCC24067, 48 h, complete inhibition of growth, 2 days, 37° C. How it is done:
as §1

In series [5] the test system is Trichophyton mentagrophytes ATCC 9533. As to the kind of experiment: Antifungal growth assay (MIC100), Trichophyton mentagrophytes. Type of series: cell-based. The note with it: ATCC9533, 72 h, complete inhibition of growth, 3 days, 28° C. The protocol: as §1
In series [6] the test system is Trichophyton rubrum ATCC 10218. The series is described as follows: Antifungal growth assay (MIC100), Trichophyton rubrum. Type of series: cell-based. Conditions: ATCC10218, 72 h, complete inhibition of growth, 3 days, 28° C. How it is done: as §1
In a further series the test system is E. coli (ATCC25922). The series is described as follows: Growth assay (MIC100), E. coli control organism. Type of series: cell-based. Conditions: Escherichia coli, ATCC25922, 20 h. The protocol:
as §1

The test system of a further series is human erythrocytes. The series is described as follows: Hemolysis of human erythrocytes. Type of series: cell-based. How it is done: For example, cytotoxic selectivity can be assessed by determining the hemolytic activity of the polymer or oligomer. Hemolytic activity assays are performed by measuring the degree of hemolysis of human erythrocytes following incubation in the presence of the polymer or oligomer and determining HC50 values. […] See also Javadpour, M. M., et al., J. Med. Chem. 39:3107-3113 (1996).
The toxicity to mammalian cells of polymers and oligomers of the present invention was evaluated using human blood obtained from healthy volunteers, anticoagulated with 0.1 volume of sodium citrate. The general procedure is as follows: Washed erythrocytes are suspended in either HEPES buffer, pH 7.4, containing 1 mM Mg2^+ and 1 mM Ca2^+ or in heated and unheated autologous serum obtained from clotted blood. Red cell agglutination is evaluated microscopically and red cell lysis is evaluated by measuring the amount of released hemoglobin spectroscopically. The effect of polymers on platelet function is studied by adding increasing concentrations of polymer to citrate-anticoagulated platelet-rich plasma. Platelet aggregation and secretion are then evaluated in a lumi-aggregometer (Chrono-Log).
One distinction is that the studies with Pmx10073 were done in whole blood. […] The concentrations of compound that are cytotoxic for mammalian cells were determined and compared to efficacious concentrations. […]

The subject of a further series is E. coli. The series is described as follows: Antimicrobial assay, minimal inhibitory concentration against E. coli.

Consider `COc1ccc(NC(=O)C(CCCNC(=N)N)NC(=O)c2cc(NC(=O)C(CCCNC(=N)N)NC(=O)c3cc(NC(=O)C(CCCNC(=N)N)NC(=O)c4cc(NC(=O)C(CCCNC(=N)N)NC(=O)c5cc(N)ccc5OC)ccc4OC)ccc3OC)ccc2OC)cc1C(=O)NC(CCCNC(=N)N)C(N)=O` (stereo not drawn) [#3], for which, in the series on Heparin (oligomer 4.4 ug/ml), the “Clotting time, Average” value is 80.3; the “Clotting time, Trial #1” value was found to be 72.2; the “Clotting time, Trial #2” value amounted to 75.1; the “Clotting time, Trial #3” value is on record as 81.2. In the series with Heparin (oligomer 4.4 ug/ml), the “Clotting time, Trial #4” value was 92.6. Also, in the series on Heparin (oligomer 44.4 ug/ml), the “Clotting time, Average” value was found to be 36.8; the “Clotting time, Trial #1” value came out at 38.7; the “Clotting time, Trial #2” value amounted to 34.1; the “Clotting time, Trial #3” value amounted to 38.6. Moreover, the “Clotting time, Trial #4” value in the series on Heparin (oligomer 44.4 ug/ml) amounted to 35.6. Besides, in [1] (oligomer 14.8 ug/ml), the “Clotting time of activated plasma” value is listed as 109.2.

With `CC(C)CCOc1ccc(NC(=O)C(CCCNC(=N)N)NC(=O)c2cc(NC(=O)C(CCCNC(=N)N)NC(=O)c3cc(NC(=O)C(CCCNC(=N)N)NC(=O)c4cc(NC(=O)C(CCCNC(=N)N)NC(=O)c5cc(N)ccc5OCCC(C)C)ccc4OCCC(C)C)ccc3OCCC(C)C)ccc2OCCC(C)C)cc1C(=O)NC(CCCNC(=N)N)C(N)=O` (stereo not drawn) [#4], in the series with Heparin (oligomer 4.4 ug/ml), the “Clotting time, Average” value came out at 169.8; the “Clotting time, Trial #1” value is 175.5; the “Clotting time, Trial #2” value was 153.8; the “Clotting time, Trial #3” value came out at 157.1. The “Clotting time, Trial #4” value in the series with Heparin (oligomer 4.4 ug/ml) is listed as 192.6. In the series on Heparin (oligomer 44.4 ug/ml), the “Clotting time, Average” value came to 29.2; the “Clotting time, Trial #1” value was determined as 31.6; the “Clotting time, Trial #2” value was found to be 29.6; the “Clotting time, Trial #3” value was 29.6. Moreover, the “Clotting time, Trial #4” value with Heparin (oligomer 44.4 ug/ml) is recorded as 26.1. Moreover, in series [1] (oligomer 0.4 ug/ml), the “Clotting time of activated plasma” value was found to be 137.7. The “Clotting time of activated plasma” value in series [1] (oligomer 14.8 ug/ml) is 44.9.

In the case of `CC(C)CC(NC(=O)c1cc(NC(=O)C(CC(C)C)NC(=O)c2cc(NC(=O)C(CC(C)C)NC(=O)c3cc(NC(=O)C(CC(C)C)NC(=O)c4cc(NC(=O)C(CC(C)C)NC(=O)c5cc(N)ccc5OCCNC(=N)N)ccc4OCCNC(=N)N)ccc3OCCNC(=N)N)ccc2OCCNC(=N)N)ccc1OCCNC(=N)N)C(N)=O` (stereo not drawn) [#10], in the series with Heparin (oligomer 4.4 ug/ml), the “Clotting time, Average” value was more than 400; the “Clotting time, Trial #1” value is recorded as 113.8; the “Clotting time, Trial #2” value was determined as 317.6; the “Clotting time, Trial #3” value is reported as more than 450. Moreover, the “Clotting time, Trial #4” value in the series with Heparin (oligomer 4.4 ug/ml) is more than 450. For the same compound, in the series with Heparin (oligomer 44.4 ug/ml), the “Clotting time, Average” value was determined as 38.7; the “Clotting time, Trial #1” value was 40.7; the “Clotting time, Trial #2” value is 35.6; the “Clotting time, Trial #3” value is recorded as 36.7. Besides, in the series on Heparin (oligomer 44.4 ug/ml), the “Clotting time, Trial #4” value was 33.7. In addition, the “Clotting time of activated plasma” value in [1] (oligomer 14.8 ug/ml) is given as 97.6.

As for `CC(C)CC(N)C(=O)Nc1cc(C(C)(C)C)cc(NC(=O)c2cccc(C(=O)Nc3cc(C(C)(C)C)cc(NC(=O)C(N)CC(C)C)c3SCCN)c2)c1SCCN` (stereo not drawn) [#13], in the series with Heparin (oligomer 4.4 ug/ml), the “Clotting time, Average” value was determined as 92.4; the “Clotting time, Trial #1” value is 81.2; the “Clotting time, Trial #2” value is 88.2; the “Clotting time, Trial #3” value stood at 94.1. Also, the “Clotting time, Trial #4” value in the series with Heparin (oligomer 4.4 ug/ml) worked out at 106.2. Besides, in series [1] (oligomer 14.8 ug/ml), the “Clotting time of activated plasma” value turned out to be 189.2.

As to `CC(C)(C)c1cc2c(OCC(=O)NCCCCCN)c(c1)Cc1cc(C(C)(C)C)cc(c1OCC(=O)NCCCCCN)Cc1cc(C(C)(C)C)cc(c1OCC(=O)NCCCCCN)Cc1cc(C(C)(C)C)cc(c1OCC(=O)NCCCCCN)C2` [#18], in the series on Heparin (oligomer 4.4 ug/ml), the “Clotting time, Average” value stood at 57.6 and the “Clotting time, Trial #1” value is 57.6. In series [1] (oligomer 0.4 ug/ml), the “Clotting time of activated plasma” value turned out to be 140.1. In series [1] (oligomer 14.8 ug/ml), the “Clotting time of activated plasma” value came out at 48.6.

As for `CC(C)CCOc1cc(OCCC(C)C)c(C(=O)NNC(=O)c2cc(C(=O)NCCN(C)C)c(OCCCCCN)cc2OCCCCCN)cc1C(=O)NNC(=O)c1cc(C(=O)NCCN(C)C)c(OCCCCCN)cc1OCCCCCN` [#19], the “Clotting time, Average” value in the series with Heparin (oligomer 0.4 ug/ml) was more than 400; with Heparin (oligomer 1.5 ug/ml), 40.2; with Heparin (oligomer 4.4 ug/ml), 27.9. In addition, the “Clotting time, Trial #1” value is more than 400 in the series on Heparin (oligomer 0.4 ug/ml), 43.2 with Heparin (oligomer 1.5 ug/ml) and 29.0 with Heparin (oligomer 4.4 ug/ml). The results for the “Clotting time, Trial #2” value with Heparin (oligomer 1.5 ug/ml) and in the series on Heparin (oligomer 4.4 ug/ml) were 37.1 and 26.7, respectively. Moreover, the “Clotting time of activated plasma” value is recorded as 64.2 in series [1] (oligomer 0.4 ug/ml), 232.8 in series [1] (oligomer 1.5 ug/ml) and 34 in [1] (oligomer 14.8 ug/ml).

Regarding `C[C@@H]1[C@H](O)[C@@H](C)/C=C/C=C/C=C/C=C/C=C/C=C/C=C/[C@H](O[C@@H]2O[C@H](C)[C@@H](O)[C@H](N)[C@@H]2O)C[C@@H]2O[C@](O)(C[C@@H](O)C[C@@H](O)[C@H](O)CC[C@@H](O)C[C@@H](O)CC(=O)O[C@H]1C)C[C@H](O)[C@H]2C(=O)O` [Amphotericin], the MIC in series [2] stood at 0.1 µg/mL (≈ 0.108 µM); in [3], 1 µg/mL (≈ 1.08 µM); in [4], 0.1 µg/mL (≈ 0.108 µM); in series [5], 0.3 µg/mL (≈ 0.325 µM); in series [6] it was 1 µg/mL (≈ 1.08 µM); against E. coli (ATCC25922) it was 3 µg/mL (≈ 3.25 µM).

For the compound `CC(C)(C)c1cc(NC(=O)c2cccc(C(=O)Nc3cc(C(C)(C)C)cc(NC(=O)[C@@H](N)CCCNC(=N)N)c3SCCN)c2)c(SCCN)c(NC(=O)[C@@H](N)CCCNC(=N)N)c1` [Compound 6], in the series with human erythrocytes (Table 1, arylamide series, one hour incubation, 50% hemoglobin release), the “HC50 RBC” value amounted to 715 µg/mL. The MIC in the series on E. coli (Escherichia coli, read-out: MIC E. coli) was 6 µg/mL (≈ 6.51 µM). In addition, the “Antimicrobial activity against E. coli, in words” value with E. coli (text on Tables 1 and 2) is “highly potent and selective”.

In the case of `CC(C)(C)c1cc(NC(=O)c2cc(OCCN)cc(C(=O)Nc3cc(C(C)(C)C)cc(NC(=O)[C@H](N)CCCNC(=N)N)c3SCCN)c2)c(SCCN)c(NC(=O)[C@H](N)CCCNC(=N)N)c1` [Compound 12], the “Concentration lysing red cells (no lysis up to)” value in the series on human erythrocytes was more than 800 µM.

As to `CC(C)CCOc1cc(OCCC(C)C)c(C(=O)NNC(=O)c2cc(C(=O)NCCN(C)C)c(OCCCCCN)cc2OCCCCCN)cc1C(=O)NNC(=O)c1cc(C(=O)NCCN(C)C)c(OCCCCCN)cc1OCCCCCN` [Compound 19], the “Antagonism of the delay in plasma clotting caused by LMWH, in words” value in [1] (oligomer 4.4 ug/ml, LMWH (Innohep) 4.6 ug/ml final concentration) is “significantly antagonized the delay in plasma clotting”.
